# In US20050054097A1, “EX-VIVO expansion of hematopoietic system cell populations in mononuclear cell cultures” (priority 2002, published 2005):
# Legend:
# [1] = tested on: cord blood mononuclear cells (MNC); test: FACS analysis of reselected CD34+ cell subsets (CD34+CD38-, CD34+Lin-) from MNC cultures; type: cell-based, human; settings: for CD34+Lin- cells by FACS from reselected CD34+ cell fraction: MNC with RAR antagonists and cytokines; for cumulative number of CD34+CD38- cells: cytokines
# Method: Surface antigen analysis: Cells were harvested, washed with a PBS solution containing 1% bovine sera albumin (BSA) and 0.1% sodium azide (Sigma), ind stained at 4° C. for 60 minutes with fluorescein isothiocyanate or phycoerythrin-conjugated antibodies (all from Immunoquality Products, the Netherlands). The cells were then washed with the same buffer and analyzed by FACS caliber or Facstarplus flow cytometers. Cells were passed at a rate of 1000 cells/second, using saline as the sheath fluid. A 488 nm argon laser beam served as the light source for excitation. Emission of ten thousand cells was measured using logarithmic amplification, and analyzed using CellQuest software.
# Reselected CD34+ cell subsets were stained for the following combination of antigens: CD34PE/CD38FITC and CD34PE/38-, 33-, 14-, 15-, 3, 4, 61, 19 (Lin) FITC.
# FACS analysis results are given as percentage values of cells. Absolute numbers of subsets are calculated from the absolute number of CD34+ cells.
# Determination of baseline levels of CD34^+/CD38− and CD34^+/Lin^− cells was conducted as follows: CD34+ cells were purified from 3 thawed cord blood units and stained for the above markers. The mean of these experiments was considered as the baseline value.
# (§1) Total cell counts, numbers of CD34+ cells and subsets, and CFU numbers are presented as cumulative numbers, with the assumption that the cultures had not been passaged; i.e., the number of cells per ml were multiplied by the number of passages performed.
# [2] = tested on: cord blood mononuclear cells (MNC); test: Ex-vivo expansion of CD34+ cells in mononuclear cell (MNC) cultures; CD34+ cells reselected and counted; type: cell-based, human; settings: for cumulative number of CD34+ cells per culture bag: cytokines, eight weeks incubation; for Number of CD34+ cells (×10^4) / Portion of CD34+ cells (%): 8 weeks
# [3] = tested on: cord blood mononuclear cells (MNC); test: as above; type: cell-based, human; settings: for cumulative number of CD34+ cells: MNC culture, cytokines, TEPA 5-10 μM for first three weeks
# Method: Sample collection and processing: Samples were obtained from umbilical cord blood after a normal full-term delivery and were frozen within 24 hours pospartum. The blood cells were thawed in Dextran buffer and incubated for 15 hours in MEM (Biological Industries, Israel) supplemented with 10% fetal calf serum (FCS; Biological Industries). The cells were then layered on Ficoll-Hypaque (density 1.077 gram/ml; Sigma) and centrifuged at 400 g for 30 minutes at room temperature. The mononuclear cells in the interface layer were then collected, washed three times in phosphate-buffered saline (PBS; Biological Industries), and re-suspended in PBS containing 0.5% human serum albumin (HSA). The cells were then split into two fractions, the first being the mononuclear cells (MNC) fraction and the second fraction was used for purifying CD34^+ cells by immunomagnetic separation using the “MiniMACS CD34^+ progenitor cell isolation kit” (Miltenyi Biotec, Auburn, Calif.) according to the manufacturer's recommendations. The purity of the CD34^+ cells obtained ranged between 95% and 98%, based on Flow Cytometry evaluation.
# Ex-vivo expansion of hematopoietic stem cells: The Mononuclear cells (MNC), obtained as described hereinabove, were plated in 24-well Costar Cell Clusters (Corning Inc., Corning, N. Y.) or seeded in Culture Bags (American Fluoroseal Corp.), with alpha minimal essential medium (a-MEM) supplemented with 10% fetal bovine serum (FBS, Biological Industries), at a concentration of about 10^6 cells/ml. […]
# Determination of CD34+ cells and subsets: CD34+ surface expression on short and long-term cultures initiated either with purified CD34+ cells or the entire MNC fraction was determined as follows: CD34+ cells were positively reselected (Miltenyi kit) and counted. […]
# Mononuclear cells (MNC) were seeded in culture bags and were provided with nutrients and cytokines (50 ng/ml FLt3, IL-6, TPO and SCF) as described above. […] The cultures were analyzed weekly during a 12-week period for the number of cells, CFUc, CD34+ and CD34+CD38− cells. […]
# [4] = tested on: cord blood mononuclear cells (MNC); test: Colony forming unit (CFU) ability of MNC cultures; type: cell-based, human; settings: MNC culture, cytokines, TEPA 5-10 μM for first three weeks
# Method: as §1
# Assaying Colony Forming Unit (CFU) ability: Cells were cloned in semi-solid, methylcellulose-containing medium supplemented with 2 IU/ml erythropoietin (Eprex, Cilag AG Int., Switzerland), stem cell factor and IL-3, both at 20 ng/ml, and G-CSF and GM-CSF, both at 10 ng/ml (all from Perpo Tech). Cultures were incubated for 14 days at 37° C., 5% CO2 in a humidified atmosphere.
# Determination of LTC-CFUc values: The ability of the cultures to maintain self-renewal was measured by determination of the content of colony forming unit cells in the long and extended long-term cultures (LTC-CFUc), as described in the references hereinabove.
# [5] = tested on: cord blood mononuclear cells (MNC); test: Morphological assessment of long-term MNC cultures (May-Grunwald/Giemsa); type: cell-based, human; settings: long-term TEPA-treated MNC cultures
# Description: Morphological assessment: Morphological characterization of the resulting culture populations was accomplished on aliquots of cells deposited on glass slides via cytospin (Cytocentrifuge, Shandon, Runcorn, UK). Cells were fixed, stained with May-Grunwald/Giemsa stain and examined microscopically.
# [6] = tested on: CD34+ cell cultures; settings: early acting cytokines, 5-10 μM TEPA (b8), atomic absorption; cited from earlier work
# [7] = cytokines + RAR antagonist 10^-6 M, 2 weeks
# [8] = cytokines + RAR antagonist 10^-6 M, 5 weeks
molecule,measurement,setting,value
CCc1ccc(C2=CC(C)(C)Sc3ccc(C#Cc4ccc(C(=O)O)cc4)cc32)cc1 [RAR antagonist],CD34+Lin- cells by FACS from reselected CD34+ cell fraction,[1]; 2 weeks after initial seeding,78%
same,CD34+Lin- cells by FACS from reselected CD34+ cell fraction,[1]; 5 weeks after initial seeding,24%
same,% CD34/Lin-,[1]; [7],78.4%
same,No of CD34+/Lin- × 10^4,[1]; [7],132.5 × 10^4
same,% CD34/Lin-,[1]; [8],24.1%
same,No of CD34+/Lin- × 10^4*,[1]; [8],237.8 × 10^4
same,No of CD34 cells × 10^4,[2]; [7],169 × 10^4
same,No of CD34 cells × 10^4*,[2]; [8],985 × 10^4
tetraethylenepentamine-copper chelate [Cu-TEPA chelate],cumulative number of CD34+CD38- cells,"[1]; 100 μM Copper-TEPA for first three weeks, eight weeks incubation",6.1×10^5
same,Number of CD34/38- cells (×10^4),"[1]; Cu-TEPA chelate 100 μM, 8 weeks",61 ×10^4
same,cumulative number of CD34+ cells per culture bag,[2]; 50 μM Copper-TEPA for first three weeks,12.37×10^6 cells per culture bag
same,cumulative number of CD34+ cells per culture bag,[2]; 100 μM Copper-TEPA for first three weeks,32.85×10^6 cells per culture bag
same,Number of CD34+ cells (×10^4),[2]; Cu-TEPA chelate 50 μM,1237.3 ×10^4
same,Portion of CD34+ cells (%),[2]; Cu-TEPA chelate 50 μM,1.4%
same,Number of CD34+ cells (×10^4),[2]; Cu-TEPA chelate 100 μM,3285.3 ×10^4
same,Portion of CD34+ cells (%),[2]; Cu-TEPA chelate 100 μM,1.2%
"NCCNCCNCCNCCN [TEPA, tetraethylenepentamine]",cumulative number of CD34+ cells,[3]; after 2 weeks,non-detectable
same,cumulative number of CD34+ cells,[3]; after 12 weeks,over 8×10^7 cells/ml
same,stem and progenitor cells densities versus pre-purified CD34+ cell cultures (not treated with TEPA),"[3]; TEPA-treated MNC cultures, 12-week period",either equalized or surpassed
same,cumulative number of CD34+CD38- cells,"[1]; MNC culture, TEPA 5-10 μM for first three weeks, after 2 weeks",non-detectable
same,cumulative number of CD34+CD38- cells,"[1]; MNC culture, TEPA 5-10 μM for first three weeks, after 12 weeks",2.5×10^7 cells/ml
same,number of CD34+ CFUs,[4]; after 2 weeks,non-detectable
same,number of CD34+ CFUs,[4]; after 10 weeks,3.2×10^7 cells/ml
same,morphological analysis of cells from long-term cultures,[5],a high proportion of non-differentiated cells
same,reduction of cell copper content,[6],30%
